Tests used:
LATS1 = molecular target: T1, LATS1 (Homo sapiens, UniProt O95835); assay: Kinase Assay method (Fluorospark Kinase/ADP Multi-Assay Kit); assay type: biochemical
T1 construct: purchased Carna Biosciences
T1 sequence (O95835 589-1130 limits assumed): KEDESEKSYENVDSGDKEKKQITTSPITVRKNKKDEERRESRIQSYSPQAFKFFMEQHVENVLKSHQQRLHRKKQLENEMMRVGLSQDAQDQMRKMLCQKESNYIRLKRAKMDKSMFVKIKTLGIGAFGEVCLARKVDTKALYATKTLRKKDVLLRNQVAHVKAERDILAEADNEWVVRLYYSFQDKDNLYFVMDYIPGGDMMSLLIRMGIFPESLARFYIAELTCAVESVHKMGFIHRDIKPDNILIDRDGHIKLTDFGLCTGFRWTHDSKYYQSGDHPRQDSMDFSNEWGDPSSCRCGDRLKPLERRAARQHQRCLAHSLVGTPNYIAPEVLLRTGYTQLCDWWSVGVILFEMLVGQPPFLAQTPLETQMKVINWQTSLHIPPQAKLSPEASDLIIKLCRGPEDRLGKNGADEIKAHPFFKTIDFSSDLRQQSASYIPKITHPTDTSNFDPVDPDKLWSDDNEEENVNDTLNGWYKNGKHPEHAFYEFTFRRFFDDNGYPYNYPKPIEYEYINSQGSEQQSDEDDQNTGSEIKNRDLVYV
Description: (§1) For compound k-1:B-1 (racemate), GA-002A, GA-002B, GA-005A and GA-005B, inhibitory activity evaluation (calculation of IC50) was performed on LATS1 and LATS2 (manufactured by Carna Biosciences). The activity was measured using the Kinase Assay method described below. The compounds were added such that the test concentration of k-1:B-1 (racemate), GA-002A, GA-002B, GA-005A and GA-005B was in 8 steps (10 μM, 1 μM, 100 nM, […], 10 nM, 3 nM, 1 nM, 0.3 nM) from the final concentration of 10 μM to 0.3 nM.
(§2) As the analysis method of the data, the mean signal of the control well containing reaction components other than the evaluation compound was set to 0% inhibition, the mean signal without enzyme addition was set to 100% inhibition, and the inhibition rate was calculated from the mean signal of 2 wells of each test substance test. IC50 value was calculated using EXSUS (version 7.1.6, manufactured by CAC EXICARE Corporation).
(§3) 2 μL of a compound of the present invention solution at 2.5-fold concentration, 1 μL of substrate at 5-fold concentration (SGKtide: NH2—CKKRNRRLSVA-COOH, manufactured by SignalChem), ATP (manufactured by Sigma-Aldrich), MgCl2 (manufactured by FUJIFILM Wako Pure Chemical Corporation) solution (final concentration 10 μM, 400 μM or 5 mM), and 2 μL of kinase solution at 2.5-fold concentration (final concentration of LATS1 or LATS2 5 μg/mL), each prepared with assay buffer (20 mM HEPES, 0.01% Triton X-100, 2 mM DTT, pH 7.5), were mixed in the wells of a polypropylene 384-well plate (manufactured by Greiner Bio-One, #784900) and reacted at room temperature for 5 hr. Successively, 5 μL detection solution (Fluorospark (registered trade mark)Kinase/ADP Multi-Assay Kit; manufactured by FUJIFILM Wako Pure Chemical Corporation) was added, and the mixture was reacted at room temperature 30 min. Successively, 5 μL of a reaction quenching liquid (Fluorospark (registered trade mark) Kinase/ADP Multi-Assay Kit; manufactured by FUJIFILM Wako Pure Chemical Corporation) was added to discontinue the reaction. Thereafter, the ADP concentration of the reaction solution was quantified by EnSpire (manufactured by PerkinElmer) to detect the kinase reaction.

LATS2 = molecular target: T2, LATS2 (Homo sapiens, UniProt Q9NRM7); assay: as above; assay type: biochemical
T2 construct: purchased Carna Biosciences
T2 sequence (Q9NRM7 553-1088 limits assumed): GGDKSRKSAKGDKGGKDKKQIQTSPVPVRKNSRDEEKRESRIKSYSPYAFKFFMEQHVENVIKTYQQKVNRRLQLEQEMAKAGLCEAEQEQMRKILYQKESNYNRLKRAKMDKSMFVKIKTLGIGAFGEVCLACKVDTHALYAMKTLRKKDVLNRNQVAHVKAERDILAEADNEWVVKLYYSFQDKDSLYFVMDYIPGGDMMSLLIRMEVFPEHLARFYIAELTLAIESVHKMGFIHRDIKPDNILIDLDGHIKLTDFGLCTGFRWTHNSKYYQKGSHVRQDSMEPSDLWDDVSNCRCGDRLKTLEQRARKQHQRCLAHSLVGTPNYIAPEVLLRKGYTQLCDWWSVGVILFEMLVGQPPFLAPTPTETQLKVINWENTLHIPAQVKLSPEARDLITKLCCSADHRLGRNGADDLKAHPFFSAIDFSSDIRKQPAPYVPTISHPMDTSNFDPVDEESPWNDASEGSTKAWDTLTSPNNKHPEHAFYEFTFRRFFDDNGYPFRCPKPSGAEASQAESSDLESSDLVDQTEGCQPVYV
Description: as §1, §2, §3

[1] = test system: YAP (phospho-S127 and total); assay: YAP phosphorylation inhibitory action in SKOV3 cells (HTRF, YAP-total kit / YAP phospho-S127 kit); assay type: cell-based, human; conditions: 10 μM, 1 hr, Non-treatment as 100%
Description: Human ovarian cancer cell line SKOV3 (manufactured by DS Pharma Biomedical Co., Ltd) was precultured (single layer culture) in a 15% FBS-containing McCoy's 5a medium (manufactured by Sigma Ltd. Aldrich). The above-mentioned cells in the logarithmic growth phase were washed with PBS, a 0.25% (w/v) trypsin-1 mmol/L ethylenediaminetetraacetic acid (EDTA) solution (manufactured by Fujifilm Wako Pure Chemical Corporation) was added, and adherent cells were detached by incubating at 37° C. for 3 min. The above-mentioned medium was added and the mixture was centrifuged and resuspended in the same medium.
According to the method of patent document (WO 2014/017513), a composition of 10% FBS-containing DMEM medium (Phenol-red free, manufactured by FUJIFILM Wako Pure Chemical Corporation) containing 0.015% (w/v) deacylated gellan gum (KELCOGEL CG-LA, manufactured by SANSHO Co., Ltd.) was prepared using FCeM-series Preparation Kit (manufactured by FUJIFILM Wako Pure Chemical Corporation). Then, various cells prepared above were suspended in the above-mentioned medium composition (3D conditions) added with deacylated gellan gum or a medium without the addition (2D conditions), and seeded on a 50 μL/well (manufactured by Corning Incorporated, 96 well flat bottom plate, #3585, 2D conditions) or 25 μL/well (manufactured by Corning Incorporated, 96 well low adhesion flat bottom plate, #3474) at 100000 cells/well. The plate was allowed to stand at 37° C. in a 5% CO2 incubator, and the compound of the present invention diluted with the medium at 2 or 6 times the final concentration, DMSO, or the medium alone was added to the plate 3 hr after the seeding at 50 μL/well (2D conditions) or 5 μL/well (3D conditions) to make the final concentration of each compound 10 μM. After culture at 37° C. in a 5% CO2 incubator for 1 hr, the supernatant was aspirated, supplemented Lysis buffer (1-fold concentration, manufactured by Cisbio, YAP-total kit or YAP phospho-S127 kit) (50 μL) was added under 2D conditions, and supplemented Lysys buffer (4-fold concentration) (10 μL) was added to the culture supernatant under 3D conditions, and the mixture was stirred by a plate shaker for 30 min. Thereafter, the plate was centrifuged, 16 μL of the supernatant was transferred to a 384-well white plate (Corning, #4512), and each antibody solution (pYAP d2 antibody or Total-YAP d2 antibody, and pYAP Cryptate antibody or Total-YAP Cryptate antibody) included in the kit was added at 4 μL/well in total, and the mixture was allowed to stand at room temperature overnight. As a blank control, pYAP Cryptate antibody or Total-YAP Cryptate antibody alone was added to cells free of stimulation with compound and the mixture was treated in the same manner (Non-treatment). The next day, the wavelengths at 665 nm and 615 nm were measured in the HTRF mode of EnVision (manufactured by PerkinElmer).
The obtained signal was calculated as follows. Ratio=signal (665 nm)/signal (615 nm)×10000, ΔR=Signal(Ratio)−Background fluorescence, and the relative value with respect to ΔR of the compound non-addition group (Non-treatment) as 100% was calculated, and the phosphorylated YAP amount or total YAP amount by each compound was evaluated.

[2] = Kinase Assay method, 8 steps 10 μM to 0.3 nM

inhibition at 0.1 µM (LATS1; 100 nM, read-out: LARS1 inhibitory rate (%)): 96%
inhibition at 1 µM (LATS1; 1000 nM, read-out: LARS1 inhibitory rate (%)): 97%
IC50 (LATS1; [2]): 4.79 nM
inhibition at 0.1 µM (LATS2; 100 nM, read-out: LARS2 inhibitory rate (%)): 99%
inhibition at 1 µM (LATS2; 1000 nM, read-out: LARS2 inhibitory rate (%)): 100%
IC50 (LATS2; [2]): 7.39 nM
SMILES: CC/C(=N\NC(=O)[C@@H](C)Nc1cccc(O)c1)c1ccc(O)c(C)c1O [GA-005A]
phosphorylated YAP (%) ([1]; 2D condition): 10%
total YAP (%) ([1]; 2D condition): 91%
phosphorylated YAP (%) ([1]; 3D condition): 10%
total YAP (%) ([1]; 3D condition): 107%
